Test results: publication PMC9692511, “Coumarin-Based Dual Inhibitors of Human Carbonic Anhydrases and Monoamine Oxidases Featuring Amino Acyl and (Pseudo)-Dipeptidyl Appendages: In Vitro and Computational Studies” (Molecules, 2022)
Several values for one entry are separate records, joined by “and”; a condition that tells them apart may be missing. Equal entries are not always repeated. Where two headings read alike, the source gives them in different places.

Experiments:
hCA XII = target: T1, hCA XII (Homo sapiens, UniProt O43570); experiment: hCA XII inhibition, stopped-flow CO2 hydration assay; format: biochemical; details: for SI hCA XII over hCA I or hCA II: Ki hCA I or II (nM)/Ki hCA XII (nM); for SI hCA XII over hCA IX: Ki hCA IX (nM)/Ki hCA XII (nM)
T1 construct: made in house
Description: (§1) An Applied Photophysics stopped-flow instrument was used for measuring hCA-catalyzed CO2 hydration activity. […] However, the background activity from the uncatalyzed reaction was always subtracted when IC50 values were obtained by using the data analysis software for the stopped-flow instrument. […] The uncatalyzed rates were measured in the same manner and were subtracted from the total observed rates. Stock solutions of the inhibitor (0.1 mM) were prepared in distilled-deionized water, and dilutions up to 0.01 nM were performed thereafter with the assay buffer. Inhibitor and enzyme solutions were preincubated together for 15 min at room temperature prior to the assay, to allow for the formation of the E–I complex. The inhibition constants (Ki) were obtained by the nonlinear least-squares methods using PRISM 3 and the Cheng-Prusoff equation as reported earlier and are presented as the mean from at least three different determinations. All hCA isoforms were recombinant proteins obtained in-house, as reported earlier.

hMAO-A = target: T2, hMAO-A (Homo sapiens, UniProt P21397); experiment: hMAO-A inhibition, kynuramine fluorescence assay; format: biochemical
T2 construct: purchased Sigma-Aldrich
T2 sequence (P21397 1-527): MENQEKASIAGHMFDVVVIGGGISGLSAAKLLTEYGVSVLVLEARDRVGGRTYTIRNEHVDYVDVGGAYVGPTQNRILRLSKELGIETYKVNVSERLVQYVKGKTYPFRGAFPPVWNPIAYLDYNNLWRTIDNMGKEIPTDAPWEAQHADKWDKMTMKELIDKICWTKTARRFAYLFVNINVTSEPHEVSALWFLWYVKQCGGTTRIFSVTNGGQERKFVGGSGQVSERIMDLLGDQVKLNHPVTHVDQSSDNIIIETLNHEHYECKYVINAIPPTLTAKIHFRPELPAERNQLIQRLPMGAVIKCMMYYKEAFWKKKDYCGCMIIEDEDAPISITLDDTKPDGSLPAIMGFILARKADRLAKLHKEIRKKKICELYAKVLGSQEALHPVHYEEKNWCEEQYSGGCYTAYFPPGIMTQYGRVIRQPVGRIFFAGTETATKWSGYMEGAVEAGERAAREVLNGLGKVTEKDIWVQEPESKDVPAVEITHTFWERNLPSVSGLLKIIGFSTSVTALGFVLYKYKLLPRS
Description: (§2) Activity measurements (IC50) for hMAO-A and hMAO-B were carried out as reported in the literature. Recombinant human MAO-A and MAO-B were obtained commercially (Sigma-Aldrich, Cape Town, South Africa) and were used as enzyme sources. Kynuramine is a non-specific substrate and serves as a substrate for both hMAO isoforms. The hMAOs metabolize kynuramine to produce 4-hydroxyquinoline, which was measured at the endpoint of the enzyme reactions by fluorescence spectrophotometry.

hMAO-B = target: T3, hMAO-B (Homo sapiens, UniProt P27338); experiment: hMAO-B inhibition, kynuramine fluorescence assay; format: biochemical; details: recombinant human MAO-B, kynuramine substrate; mean ± SD of three independent experiments
T3 construct: purchased Sigma-Aldrich
T3 sequence (P27338 1-520): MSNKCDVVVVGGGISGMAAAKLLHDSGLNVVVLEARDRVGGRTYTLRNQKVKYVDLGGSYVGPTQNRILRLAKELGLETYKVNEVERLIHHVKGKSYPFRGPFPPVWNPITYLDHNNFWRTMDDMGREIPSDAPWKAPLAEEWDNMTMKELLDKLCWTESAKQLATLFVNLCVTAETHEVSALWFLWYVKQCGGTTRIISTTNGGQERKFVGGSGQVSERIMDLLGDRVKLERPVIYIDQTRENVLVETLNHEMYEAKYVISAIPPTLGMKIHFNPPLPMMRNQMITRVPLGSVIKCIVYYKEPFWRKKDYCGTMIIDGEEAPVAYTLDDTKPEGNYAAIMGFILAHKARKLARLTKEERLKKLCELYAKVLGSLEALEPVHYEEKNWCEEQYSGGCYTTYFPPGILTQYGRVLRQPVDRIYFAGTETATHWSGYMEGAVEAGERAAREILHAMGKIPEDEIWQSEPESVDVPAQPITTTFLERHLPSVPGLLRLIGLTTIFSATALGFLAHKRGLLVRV
Description: as §2

hCA I = target: T4, hCA I (Homo sapiens, UniProt P00915); experiment: hCA I inhibition, stopped-flow CO2 hydration assay; format: biochemical; details: stopped-flow technique, mean of three independent experiments
T4 construct: made in house
Description: as §1

hCA IX = target: T5, hCA IX (Homo sapiens, UniProt Q16790); experiment: hCA IX inhibition, stopped-flow CO2 hydration assay; format: biochemical; details: for Ki: stopped-flow technique, mean of three independent experiments
T5 construct: made in house
Description: as §1

hCA II = target: T6, hCA II (Homo sapiens, UniProt P00918); experiment: hCA II inhibition, stopped-flow CO2 hydration assay; format: biochemical; details: stopped-flow technique, mean of three independent experiments
T6 construct: made in house
Description: as §1

[1] = recombinant human MAO-A, kynuramine substrate, mean ± SD of three independent experiments
[2] = Ki hCA I or II (nM)/Ki hCA IX (nM)
[3] = stopped-flow technique, mean of three independent experiments, read-out: Ki hCA XII

T4 sequence (P00915 whole entry): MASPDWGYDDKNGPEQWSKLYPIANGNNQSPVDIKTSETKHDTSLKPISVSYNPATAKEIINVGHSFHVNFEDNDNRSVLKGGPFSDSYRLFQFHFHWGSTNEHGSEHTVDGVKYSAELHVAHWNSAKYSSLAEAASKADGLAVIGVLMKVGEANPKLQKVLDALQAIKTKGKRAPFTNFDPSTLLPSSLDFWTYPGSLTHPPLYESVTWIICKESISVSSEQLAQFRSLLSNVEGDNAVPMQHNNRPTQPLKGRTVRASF
T1 sequence (O43570 25-354): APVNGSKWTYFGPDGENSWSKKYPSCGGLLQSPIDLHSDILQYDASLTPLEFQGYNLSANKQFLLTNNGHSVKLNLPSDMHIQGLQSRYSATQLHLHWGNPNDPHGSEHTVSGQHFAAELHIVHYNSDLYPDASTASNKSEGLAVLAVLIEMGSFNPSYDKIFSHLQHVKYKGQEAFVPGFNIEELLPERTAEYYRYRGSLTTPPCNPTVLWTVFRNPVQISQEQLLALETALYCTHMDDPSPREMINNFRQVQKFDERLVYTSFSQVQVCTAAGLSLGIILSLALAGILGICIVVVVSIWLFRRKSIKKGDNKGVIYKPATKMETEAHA

SMILES | SI hCA XII over hCA I or hCA II (hCA XII) | SI hCA XII over hCA IX (hCA XII) | IC50 (hMAO-A; [1]) | IC50 (hMAO-B) [µM] | Ki (hCA I) [µM] | SI hCA IX over hCA I or hCA II (hCA IX) | Ki (hCA IX) [µM] | Ki (hCA II) [µM] | Ki (hCA XII) [µM] | melting point [°C] | SI hCA IX over hCA I or hCA II (hCA IX; [2]) | Ki (hCA XII; [3]) [µM] | SI MAO-B/MAO-A (hMAO-A; IC50 MAO-B/IC50 MAO-A, selectivity for hMAO-A) | MAO-A (IC50 μM) (hMAO-A; [1]) | MAO-B (IC50 μM) (hMAO-B)
CC(=O)N[C@@H](C)C(=O)Nc1ccc2c(C)cc(=O)oc2c1 [Compound 6, Ac-Ala-AMC] | >327.9 | 0.8 | < 10 µM and 1.92 µM | > 100 | > 10 |  | 0.0234 | > 10 |  |  | >427.3 | 0.0305 | 52 |  | 
COCc1cc(=O)oc2cc(NC(=O)[C@H](C)NC(C)=O)ccc12 [Compound 7, Ac-Ala-AMMC] | >213.7 | 0.6 | 12 ± 0.693 µM | 45.6 ± 1.85 | > 10 |  | 0.0294 | > 10 |  |  | >340.1 | 0.0468 |  |  | 
COC(=O)CNC(=O)N[C@@H](C)C(=O)Nc1ccc2c(C)cc(=O)oc2c1 [Compound 16, MeO-Gly-CO-Ala-AMC] | >261.8 | 4.8 | < 10 µM and 5.91 µM | > 100 | > 10 |  | 0.183 | > 10 | 0.0382 | 193 to 195 | >54.6 |  |  |  | 
COC(=O)[C@H](C)NC(=O)N[C@@H](C)C(=O)Nc1ccc2c(C)cc(=O)oc2c1 [Compound 17, MeO-Ala-CO-Ala-AMC] | >1041.7 | 17.0 | 69.6 ± 9.28 µM | 58.6 ± 24 | > 10 |  | 0.163 | > 10 | 0.0096 | 193 to 195 | >61.2 |  |  |  | 
CCOC(=O)CCNC(=O)N[C@@H](C)C(=O)Nc1ccc2c(C)cc(=O)oc2c1 [Compound 19, EtO-βAla-CO-Ala-AMC] | >1052.6 | 27.4 | > 100 µM | > 100 | > 10 |  | 0.261 | > 10 | 0.0095 | 182 to 183 | >38.4 |  |  | completely devoid of activity | completely devoid of activity
COCc1cc(=O)oc2cc(NC(=O)[C@H](C)NC(=O)N[C@@H](C)C(=O)OC)ccc12 [Compound 20, MeO-Ala-CO-Ala-AMMC] | >182.8 | 0.5 | > 100 µM | 75.3 ± 0.976 | > 10 |  | 0.027 | > 10 | 0.0547 | 148 to 150 | >370.4 |  |  |  | 

Now from value to molecule:

SI hCA XII over hCA I or hCA II (hCA XII) | SI hCA XII over hCA IX (hCA XII) | IC50 (hMAO-A; [1]) | IC50 (hMAO-B) [µM] | Ki (hCA I) [µM] | SI hCA IX over hCA I or hCA II (hCA IX) | Ki (hCA IX) [µM] | Ki (hCA II) [µM] | Ki (hCA XII) [µM] | melting point [°C] | SI hCA IX over hCA I or hCA II (hCA IX; [2]) | Ki (hCA XII; [3]) [µM] | SI MAO-B/MAO-A (hMAO-A; IC50 MAO-B/IC50 MAO-A, selectivity for hMAO-A) | MAO-A (IC50 μM) (hMAO-A; [1]) | MAO-B (IC50 μM) (hMAO-B) | SMILES
>90.9 | 0.3 | < 10 µM and 9.31 µM | > 100 | > 10 | >327.9 | 0.0305 | > 10 |  |  |  |  |  |  |  | Cc1cc(=O)oc2cc(NC(=O)[C@H](C)NC(=O)OCc3ccccc3)ccc12 [Compound 1, Z-Ala-AMC]
>268.8 | 2.4 | 54.8 ± 0.028 µM | > 100 | > 10 |  | 0.091 | > 10 | 0.0372 | 153 to 155 | >109.9 |  |  |  |  | Cc1cc(=O)oc2cc(NC(=O)[C@H](C)NC(=O)OCC3c4ccccc4-c4ccccc43)ccc12 [Compound 2, Fmoc-Ala-AMC]
>241.0 | 1.9 | 47 ± 13.5 µM | > 100 | > 10 |  | 0.0787 | > 10 | 0.0415 |  | >127.1 |  |  |  |  | CCC(C)C(NC(=O)OCc1ccccc1)C(=O)Nc1ccc2c(COC)cc(=O)oc2c1 (stereo not drawn) [Compound 8, Z-Ile-AMMC]
>29.7 | 0.5 | 41.3 ± 17.8 µM | 79.5 ± 7.24 | > 10 |  | 0.172 | > 10 | 0.336 | 205 to 209 | >58.3 |  |  |  |  | COCc1cc(=O)oc2cc(NC(=O)[C@@H](NC(=O)[C@H](C)NC(=O)OCc3ccccc3)C(C)(C)C)ccc12 [Compound 11, Z-Ala-tLeu-AMMC]
>250.0 | 2.3 | 21.8 ± 0.092 µM | 78 ± 22.3 | > 10 |  | 0.0936 | > 10 | 0.04 | 177 to 183 | >106.8 |  |  |  |  | COC(=O)[C@H](Cc1ccccc1)NC(=O)N[C@@H](C)C(=O)Nc1ccc2c(C)cc(=O)oc2c1 [Compound 18, MeO-Phe-CO-Ala-AMC]
